Test systems include K562; SF-268; NCI-H522; SK-MEL-28; RPMI-8226; MDA-MB-435; HOP-62; U-251; SK-MEL-2; SF-539; A498; CCRF-CEM; IGROV-1; SR; 786-0; LOX IMVI; SNB-75; NCI-H23; UACC-62; UACC-257.
What all share (assay): NCI tumour cell line growth inhibition, 48 h

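Five concentrations, 48 hours, 96-well plates. The concentration for 50% growth inhibition is given as GI50.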 Calls of active or inactive are those of the source. No stated cut-off is given here; in the data, active = GI50 up to about 1.1 µM and inactive = higher.

Take `Cc1cc2nc3[nH]c4c(Cl)cc(Cl)cc4c3nc2cc1C`: the GI50 with K562, with SF-268, in the assay on NCI-H522, in the assay on SK-MEL-28, in the assay with RPMI-8226 and in the assay with MDA-MB-435 was > 100 µM (inactive) throughout. Moreover, the GI50 is > 100 µM (inactive) in the assay with HOP-62; > 100 µM (inactive) in the assay on U-251; > 100 µM (inactive) with SK-MEL-2; 36.5 µM (inactive) in the assay on SF-539; > 100 µM (inactive) in the assay on A498; 72.3 µM (inactive) in the assay with CCRF-CEM. The GI50 with IGROV-1 is > 100 µM (inactive); with SR it was 96.8 µM (inactive); with 786-0, > 100 µM (inactive); in the assay with LOX IMVI it was > 100 µM (inactive); in the assay with SNB-75 it was 9.12 µM (inactive); in the assay with NCI-H23, > 100 µM (inactive). In addition, the GI50 in the assay on UACC-62 was 84.7 µM (inactive).
With `CS(=O)(=O)N1CC(CCl)c2ccc(NO)cc21` (stereo unspecified), the GI50 was 2.88 µM (inactive) in the assay with K562; 5.22 µM (inactive) in the assay on SF-268; 4.17 µM (inactive) in the assay on NCI-H522; 19.1 µM (inactive) in the assay on SK-MEL-28; 4.5 µM (inactive) in the assay with RPMI-8226; 16.6 µM (inactive) in the assay with MDA-MB-435. Moreover, the GI50 is 17.7 µM (inactive) in the assay with HOP-62; 11.4 µM (inactive) in the assay with U-251; 17.7 µM (inactive) in the assay with SK-MEL-2; 10.2 µM (inactive) in the assay with SF-539; 19.5 µM (inactive) with UACC-257; 15.2 µM (inactive) in the assay with A498. In addition, the GI50 with CCRF-CEM was 1.83 µM (inactive); in the assay with IGROV-1, 13.6 µM (inactive); in the assay with SR, 2.3 µM (inactive); in the assay on 786-0, 13.4 µM (inactive); with LOX IMVI, 13.3 µM (inactive); in the assay with SNB-75, 1.77 µM (inactive). For the same molecule, the GI50 in the assay with NCI-H23 is 5.06 µM (inactive); with UACC-62, 13.6 µM (inactive).
With `CCOC(=O)C1C(c2ccc3c(c2)OCO3)c2c(n[nH]c2O)CC1(C)O` (stereo unspecified), the GI50 in the assay with SF-268, in the assay with NCI-H522, in the assay on SK-MEL-28, in the assay with RPMI-8226, with MDA-MB-435 and with HOP-62 was > 100 µM (inactive) each time. Further, the GI50 in the assay with U-251, in the assay with SK-MEL-2, in the assay with SF-539, with UACC-257, in the assay with A498 and with CCRF-CEM was > 100 µM (inactive) each time. Moreover, the GI50 in the assay on IGROV-1, in the assay with SR, with 786-0, in the assay with LOX IMVI, in the assay on SNB-75 and in the assay with NCI-H23 was > 100 µM (inactive) in each case. In addition, in the assay with UACC-62, the GI50 is > 100 µM (inactive).
With `C[C@@H]1CC[C@@H]2[C@@H](C1)O[C@@H]([C@H](C)OCc1ccccc1)SC2(C)C`, the GI50 in the assay with K562 was 19.6 µM (inactive); with SF-268 it was 32.3 µM (inactive); in the assay with NCI-H522, 19.7 µM (inactive); with SK-MEL-28, 32.1 µM (inactive); in the assay on RPMI-8226 it was 17.4 µM (inactive); in the assay on MDA-MB-435, 30.3 µM (inactive). The GI50 in the assay on HOP-62 was 34.4 µM (inactive); in the assay with U-251, 17.9 µM (inactive); with SK-MEL-2 it was 17.5 µM (inactive); in the assay on SF-539, 29.2 µM (inactive); with UACC-257 it was 25.5 µM (inactive); in the assay on A498, 19.7 µM (inactive). In addition, the GI50 in the assay with IGROV-1 was 41.8 µM (inactive); in the assay on SR, 18.2 µM (inactive); in the assay on 786-0 it was 21.2 µM (inactive); with LOX IMVI, 18.4 µM (inactive); in the assay on SNB-75, 16.4 µM (inactive); in the assay on NCI-H23, 31.8 µM (inactive). In the assay on UACC-62, the GI50 was 36.4 µM (inactive).
For `CC(=N\N=C\c1ccccn1)/C(C)=N/N=C(C)/C(C)=N/N=C/c1ccccn1`, the GI50 with SF-268, in the assay on NCI-H522, in the assay with SK-MEL-28, with RPMI-8226, in the assay on MDA-MB-435 and in the assay with HOP-62 was > 100 µM (inactive) throughout. Moreover, the GI50 in the assay on U-251, in the assay with SK-MEL-2, in the assay with SF-539, in the assay with UACC-257, in the assay with A498 and with CCRF-CEM was > 100 µM (inactive) in each case. For the same molecule, the GI50 in the assay on IGROV-1, with SR, in the assay with 786-0, with LOX IMVI, in the assay with SNB-75 and in the assay with NCI-H23 was > 100 µM (inactive) in each case.
As to `Cc1cnc2c(c1)C(=O)C1=C(C2=O)C2OC(=O)CC2OC1(C)C` (stereo unspecified), the GI50 in the assay on K562 is 0.0209 µM (active); with SF-268, 0.223 µM (active); with NCI-H522 it was 0.0525 µM (active); in the assay on SK-MEL-28, 0.684 µM (active); in the assay on RPMI-8226 it was 0.188 µM (active); in the assay with MDA-MB-435, 0.308 µM (active). The GI50 was 1.18 µM (inactive) with HOP-62; 0.109 µM (active) in the assay with U-251; 0.964 µM (active) with SK-MEL-2; 0.237 µM (active) with SF-539; 0.198 µM (active) in the assay with UACC-257; 1.83 µM (inactive) with A498. Also, the GI50 with CCRF-CEM was 0.0239 µM (active); with IGROV-1, 0.179 µM (active); with SR, 0.0389 µM (active); in the assay on 786-0, 0.258 µM (active); with LOX IMVI, 0.193 µM (active); with SNB-75, 1.69 µM (inactive). Further, the GI50 in the assay with NCI-H23 was 0.321 µM (active); in the assay on UACC-62, 0.179 µM (active).
With `O=C([C@H](O)[C@@H](O)c1cccc(Cl)c1)C12CC3CC(CC(C3)C1)C2`, the GI50 is 2.98 µM (inactive) with K562; 1.81 µM (inactive) with SF-268; 2.23 µM (inactive) with NCI-H522; 3.21 µM (inactive) with SK-MEL-28; 0.838 µM (active) in the assay with RPMI-8226; 2.58 µM (inactive) with MDA-MB-435. The GI50 is 2.69 µM (inactive) in the assay on HOP-62; 1.53 µM (inactive) in the assay with U-251; 1.95 µM (inactive) in the assay on SK-MEL-2; 1.77 µM (inactive) with SF-539; 2.21 µM (inactive) in the assay with UACC-257; 2.31 µM (inactive) in the assay on A498. Moreover, the GI50 is 1.14 µM (inactive) with CCRF-CEM; 1.34 µM (inactive) in the assay on IGROV-1; 2.07 µM (inactive) with SR; 1.05 µM (active) in the assay on 786-0; 1.22 µM (inactive) in the assay with LOX IMVI; 1.72 µM (inactive) in the assay with SNB-75. In addition, the GI50 with NCI-H23 is 1.79 µM (inactive); with UACC-62, 1.73 µM (inactive).
In the case of `CC1(C)N=C2C(=O)c3c([nH]c4ccccc34)[C@]3(C)CCC1CC23` (stereo partly specified), the GI50 in the assay on K562, in the assay on SF-268, in the assay with NCI-H522, in the assay with SK-MEL-28, with RPMI-8226 and in the assay on MDA-MB-435 was > 6.25 µM (inactive) each time. For the same molecule, the GI50 in the assay on HOP-62, in the assay with U-251, in the assay on SK-MEL-2, in the assay on SF-539, in the assay with UACC-257 and in the assay on A498 was > 6.25 µM (inactive) in each case. For the same molecule, the GI50 with CCRF-CEM, in the assay on IGROV-1, in the assay on SR, in the assay with 786-0, with LOX IMVI and in the assay with SNB-75 was > 6.25 µM (inactive) in each case. Besides, the GI50 with NCI-H23 was > 6.25 µM (inactive).
Take `S=C(N/N=C(/c1ccccc1)c1ccccn1)Nc1ccc(Cl)cc1`: the GI50 was < 0.01 µM (active) in the assay on K562; 0.236 µM (active) with SF-268; 1.16 µM (inactive) in the assay with NCI-H522; 2.28 µM (inactive) with SK-MEL-28; < 0.0221 µM (active) with RPMI-8226; 2.22 µM (inactive) in the assay on MDA-MB-435. Moreover, the GI50 is 1.93 µM (inactive) in the assay on HOP-62; 0.124 µM (active) in the assay on U-251; 0.455 µM (active) in the assay with SK-MEL-2; 1.45 µM (inactive) in the assay with SF-539; 0.0569 µM (active) in the assay with UACC-257; 3.3 µM (inactive) with A498. The GI50 in the assay with CCRF-CEM is < 0.0155 µM (active); with IGROV-1, 0.112 µM (active); with SR it was < 0.0204 µM (active); in the assay with 786-0, 1.05 µM (active); in the assay on LOX IMVI, 0.164 µM (active); in the assay on SNB-75 it was 2.06 µM (inactive). In the assay with UACC-62, the GI50 was 0.59 µM (active).
As for `COc1cc(/C=C\c2ccc(SC)cc2)cc(OC)c1OC`, the GI50 is < 0.01 µM (active) in the assay with K562; 0.0406 µM (active) in the assay with SF-268; 0.0133 µM (active) in the assay on NCI-H522; 0.0331 µM (active) with RPMI-8226; < 0.01 µM (active) in the assay with MDA-MB-435; 0.0175 µM (active) with HOP-62. The GI50 in the assay with U-251 is 0.0845 µM (active); in the assay on SK-MEL-2, 0.0188 µM (active); in the assay with SF-539 it was < 0.0145 µM (active); with A498, 0.883 µM (active); in the assay on CCRF-CEM it was 0.0202 µM (active); with IGROV-1 it was 0.0632 µM (active). Besides, the GI50 with SR was < 0.01 µM (active); with 786-0, 0.0221 µM (active); with LOX IMVI it was < 0.0262 µM (active); in the assay with SNB-75, < 0.01 µM (active); in the assay on NCI-H23, 0.0268 µM (active); in the assay with UACC-62 it was 0.0227 µM (active).

The values are drawn from ChEMBL document CHEMBL1201862, “PubChem BioAssay data set” (2004).
